Patent publication US9371351B2, “Glycomimetics as Pseudomonas aeruginosa lectin inhibitors” (priority 2012, dated 2016)

Target: LecB (Pseudomonas aeruginosa, UniProt Q9HYN5)
Test: biochemical
Format: binding
Details: for rIC50 (MeMan): IC50 relative to Me-α-Man, below 1 = stronger ligand than Me-α-Man
Description: A LecB competition assay was carried out by a novel fluorescence polarization assay developed by the inventors of the present invention. To date, an enzyme-linked lectin assay (ELLA) is widely used for the evaluation in screening of the binding potential of ligands to LecB. This allows the evaluation of molecules over a broad affinity range, including monovalent ligands and oligomeric dendrimers thereof. ELLAs have been developed based on enzyme-linked immunosorbent assays (ELISA). […] Furthermore, the current ELLA protocol involves either a surface immobilization of LecB or a covalent modification of the lectin, which could interfere with ligand binding. Consequently, hits from the ELLA are usually further characterized by direct measurement of the binding process of the ligand with the native, unmodified protein using microcalorimetry, requiring large amounts of protein.
In this assay format, the displacement of a fluorescently-labeled reporter ligand bound to the receptor by an inhibitor can be measured by mixing protein, inhibitor and reporter ligand in a given buffer system.
Similar conditions were applied, but the protein concentration was fixed at 150 nM. […] The resulting sigmoidal data points on the logarithmic inhibitor concentration scale were used to fit a one-site inhibition model and obtain IC50 values.
After addition of the reagents, the microtiter plates were centrifuged at 800 rpm for 1 min at 23° C. and incubated for 6 h at room temperature. The fluorescence was measured on a Tecan […] F500 plate reader (Tecan Austria GmbH) with excitation filters at 485 nm and emission filters at 535 nm in black 384-well microtiter plates (Greiner Bio-One). The G-factor was set on 0.92154 and the gain to 80. The measured intensities were reduced by buffer values. The data were analyzed with Graphpad Prism 5 and fitted according to the four parameter variable slope model.

Sequence of LecB (Q9HYN5 entry or part of it): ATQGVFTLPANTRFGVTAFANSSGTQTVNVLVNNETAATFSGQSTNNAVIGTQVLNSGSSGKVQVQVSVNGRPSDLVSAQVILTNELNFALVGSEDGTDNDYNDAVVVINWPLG

## CO[C@H]1O[C@H](CNS(=O)(=O)c2ccccc2)[C@@H](O)[C@H](O)[C@@H]1O [10a, Methyl 6-(phenylsulfonylamido)-6-deoxy-α-D-mannopyranoside]
  rIC50 (MeMan): 0.09

## CO[C@H]1O[C@H](CNS(=O)(=O)c2ccc(C)cc2)[C@@H](O)[C@H](O)[C@@H]1O [10b, Methyl 6-(p-tosylamido)-6-deoxy-α-D-mannopyranoside]
  IC50: 68.2 µM
  rIC50 (MeMan): 0.31

## CO[C@H]1O[C@H](CNS(=O)(=O)c2ccc(Br)cc2)[C@@H](O)[C@H](O)[C@@H]1O [10c, Methyl 6-(4-bromophenylsulfonylamido)-6-deoxy-α-D-mannopyranoside]
  IC50: 24.9 µM
  rIC50 (MeMan): 0.12

## CO[C@H]1O[C@H](CNS(=O)(=O)c2ccc([N+](=O)[O-])cc2)[C@@H](O)[C@H](O)[C@@H]1O [10d, Methyl 6-(4-nitrophenylsulfonylamido)-6-deoxy-α-D-mannopyranoside]
  IC50: 47.4 µM
  rIC50 (MeMan): 0.21

## CO[C@H]1O[C@H](CNS(=O)(=O)c2c(C)cc(C)cc2C)[C@@H](O)[C@H](O)[C@@H]1O [10e, Methyl 6-(2,4,6-trimethylphenylsulfonylamido)-6-deoxy-α-D-mannopyranoside]
  rIC50 (MeMan): 0.015

## CO[C@H]1O[C@H](CNS(=O)(=O)c2c(C(C)C)cc(C(C)C)cc2C(C)C)[C@@H](O)[C@H](O)[C@@H]1O [10f, Methyl 6-(2,4,6-triisopropylphenylsulfonylamido)-6-deoxy-α-D-mannopyranoside]
  IC50: 11.5 µM
  rIC50 (MeMan): 0.05

## COc1ccccc1/C=C/C(=O)NC[C@H]1O[C@H](OC)[C@@H](O)[C@@H](O)[C@@H]1O [11b, Methyl 6-(2-methoxycinnamido)-6-deoxy-α-D-mannopyranoside]
  IC50: 45.8 µM
  rIC50 (MeMan): 0.21

## CO[C@H]1O[C@H](CNC(=O)/C=C/c2ccccc2[N+](=O)[O-])[C@@H](O)[C@H](O)[C@@H]1O [11c, Methyl 6-(2-nitrocinnamido)-6-deoxy-α-D-mannopyranoside]
  IC50: 75.5 µM
  rIC50 (MeMan): 0.35

## CO[C@H]1O[C@H](CNC(=O)/C=C/c2ccccc2N)[C@@H](O)[C@H](O)[C@@H]1O [11d, Methyl 6-(2-aminocinnamido)-6-deoxy-α-D-mannopyranoside]
  IC50: 52.6 µM
  rIC50 (MeMan): 0.24

## CO[C@H]1O[C@H](CNC(=O)/C=C/c2ccccc2C)[C@@H](O)[C@H](O)[C@@H]1O [11e, Methyl 6-(2-methylcinnamido)-6-deoxy-α-D-mannopyranoside]
  IC50: 62.7 µM
  rIC50 (MeMan): 0.29

## CO[C@H]1O[C@H](CNC(=O)/C=C/c2cccc([N+](=O)[O-])c2)[C@@H](O)[C@H](O)[C@@H]1O [11f, Methyl 6-(3-nitrocinnamido)-6-deoxy-α-D-mannopyranoside]
  IC50: 53.4 µM
  rIC50 (MeMan): 0.25

## CO[C@H]1O[C@H](CNC(=O)/C=C/c2cccc(N)c2)[C@@H](O)[C@H](O)[C@@H]1O [11g, Methyl 6-(3-aminocinnamido)-6-deoxy-α-D-mannopyranoside]
  IC50: 63 µM
  rIC50 (MeMan): 0.29

## COc1ccc(/C=C/C(=O)NC[C@H]2O[C@H](OC)[C@@H](O)[C@@H](O)[C@@H]2O)cc1 [11h, Methyl 6-(4-methoxycinnamido)-6-deoxy-α-D-mannopyranoside]
  IC50: 66 µM
  rIC50 (MeMan): 0.3

## CO[C@H]1O[C@H](CNC(=O)/C=C/c2ccc([N+](=O)[O-])cc2)[C@@H](O)[C@H](O)[C@@H]1O [11i, Methyl 6-(4-nitrocinnamido)-6-deoxy-α-D-mannopyranoside]
  IC50: 106 µM
  rIC50 (MeMan): 0.49
